One may read the IC50 as the point on the concentration scale where inhibition reaches its midpoint. Read a low IC50 as greater potency in that assay.

The first test addresses T1, human IsK protein (UniProt P15382+P70057).
T1 construct: expressed in transfected cells; host or cells: Xenopus laevis oocytes injected with in vitro synthesized IsK RNA
In words: cell-based. The note with it: human IsK expressed in Xenopus oocytes; voltage jumps to -10 mV lasting 15 s; pH 7.5; room temperature; Hill equation.
`CN([C@@H]1c2cc(OCc3ccccc3)ccc2OC(C)(C)[C@H]1O)S(C)(=O)=O` (racemic) [Example 1, (±)-trans-N-(6-Benzyloxy-3-hydroxy-2,2-dimethylchroman-4-yl)-N-methylmethanesulfonamide] had an IC50 of 200 nM. Same read-out and setting: to `CC(=O)O[C@H]1[C@H](N(C)S(C)(=O)=O)c2cc(OCc3ccccc3)ccc2OC1(C)C` (racemic) [Example 2, (±)-trans-N-(6-Benzyloxy-3-acetoxy-2,2-dimethylchroman-4-yl)-N-methyl-methanesulfonamide] belongs 13000 nM.

`CO[C@H]1[C@H](N(C)S(C)(=O)=O)c2cc(OCc3ccccc3)ccc2OC1(C)C` (racemic) [Example 3, (±)-trans-N-(6-Benzyloxy-3-methoxy-2,2-dimethylchroman-4-yl)-N-methyl-methanesulfonamide] gave an IC50 of 6500 nM. This IC50 is about 2-fold lower than that of the molecule before.

`CCCCOc1ccc2c(c1)[C@@H](N(C)S(C)(=O)=O)[C@H](O)C(C)(C)O2` (racemic) [Example 5, (±)-trans-N-(6-Butoxy-3-hydroxy-2,2-dimethylchroman-4-yl)-N-methyl-methanesulfonamide] registered an IC50 of 250 nM. Take `CCCCOc1ccc2c(c1)[C@@H](N(C)S(C)(=O)=O)[C@H](OC(C)=O)C(C)(C)O2` (racemic) [Example 6, (±)-trans-N-(3-Acetoxy-6-butoxy-2,2-dimethylchroman-4-yl)-N-methyl-methanesulfonamide]: the IC50 is > 10000 nM. On to `CCCCN([C@@H]1c2cc(OCc3ccccc3)ccc2OC(C)(C)[C@H]1O)S(C)(=O)=O` (racemic) [Example 10, (±)-trans-N-(6-Benzyloxy-3-hydroxy-2,2-dimethylchroman-4-yl)-N-butyl-methanesulfonamide], for which the IC50 came to 400 nM. The same measure, in the same setting: with `COC(=O)CN([C@@H]1c2cc(OCc3ccccc3)ccc2OC(C)(C)[C@H]1O)S(C)(=O)=O` (racemic) [Example 12, Methyl (±)-trans-[(6-benzyloxy-3-hydroxy-2,2-dimethylchroman-4-yl)-methanesulfonylamino]acetate] the figure was 800 nM; with `CCCCOc1ccc2c(c1)[C@@H](N(CC)S(C)(=O)=O)[C@H](O)C(C)(C)O2` (racemic) [Example 14, (±)-trans-N-(6-Butoxy-3-hydroxy-2,2-dimethylchroman-4-yl)-N-ethyl-methanesulfonamide], 200 nM. Consider `CC(=O)O[C@H]1[C@H](N(C)S(C)(=O)=O)c2cc(OCCCC(F)(F)F)ccc2OC1(C)C` (racemic) [Example 21, (±)-trans-N-[3-Acetoxy-6-(4,4,4-trifluorobutoxy)-2,2-dimethylchroman-4-yl]-N-methyl-methanesulfonamide], for which the IC50 was ~10000 nM. The same measure, in the same setting: to `CN(C1=CC(C)(C)Oc2ccc(OCc3ccccc3)cc21)S(C)(=O)=O` [Example 4, N-(6-Benzyloxy-2,2-dimethyl-2H-chromen-4-yl)-N-methyl-methanesulfonamide] belongs 1600 nM; to `CCCCOc1ccc2c(c1)C(N(C)S(C)(=O)=O)=CC(C)(C)O2` [Example 7, N-(6-Butoxy-2,2-dimethyl-2H-chromen-4-yl)-N-methyl-methanesulfonamide], 1600 nM. `CCCOc1ccc2c(c1)C(N(C)S(C)(=O)=O)=CC(C)(C)O2` [Example 9, N-(6-Propoxy-2,2-dimethyl-2H-chromen-4-yl)-N-methyl-methanesulfonamide]: the half-maximal inhibitory concentration (IC50) amounted to 2600 nM. In turn, `CCCCN(C1=CC(C)(C)Oc2ccc(OCc3ccccc3)cc21)S(C)(=O)=O` [Example 11] displayed an IC50 of 1600 nM. Still for that read-out and setting: to `CCCCOc1ccc2c(c1)C(N(CC)S(C)(=O)=O)=CC(C)(C)O2` [Example 15, N-(6-Butoxy-2,2-dimethyl-2H-chromen-4-yl)-N-ethyl-methanesulfonamide] belongs 1300 nM. For `CCCCOc1ccc2c(c1)[C@@H](N(C)S(C)(=O)=O)[C@H](O)C(C)(C)O2` [Example 16, (3S, 4R)-(-)-N-(6-Butoxy-3-hydroxy-2,2-dimethylchroman-4-yl)-N-methyl-methanesulfonamide], the half-maximal inhibitory concentration (IC50) is 400 nM.

The molecule `CCS(=O)(=O)N(C)[C@@H]1c2cc(OCc3ccccc3)ccc2OC(C)(C)[C@H]1O` [Example 17, (3S, 4R)-(-)-N-(6-Benzyloxy-3-hydroxy-2,2-dimethylchroman-4-yl)-N-methyl-ethanesulfonamide] returned an IC50 of 400 nM. This counts as sub-micromolar. On to `CCS(=O)(=O)N(C)[C@H]1c2cc(OCCCC(F)(F)F)ccc2OC(C)(C)[C@@H]1O` [Example 18, (3R, 4S)-(+)-N-[-3-Hydroxy-2,2-dimethyl-6-(4,4,4-trifluorobutoxy)chroman-4-yl]-N-methyl-ethanesulfonamide], for which the IC50 stood at 100 nM. The same measure, in the same setting: with `CN(C1=CC(C)(C)Oc2ccc(OCCCC(F)(F)F)cc21)S(C)(=O)=O` [Example 22, N-[6-(4,4,4-Trifluorobutoxy)-2,2-dimethyl-2H-chromen-4-yl]-N-methyl-methanesulfonamide] the figure was 600 nM; with `CC1(C)Oc2ccc(OCCCC(F)(F)F)cc2[C@H](NS(C)(=O)=O)[C@H]1O` [Example 23a, (3R,4S)-N-[3-Hydroxy-2,2-dimethyl-6-(4,4,4-trifluoro-butoxy)-chroman-4-yl]-methanesulfonamide], 1700 nM.

Another test deals with IKr.
Experiment: not given
The settings on record: class III antiarrhythmics; cited from earlier work.
On to `CC(C)NC[C@@H](O)c1ccc(NS(C)(=O)=O)cc1` [d-sotalol], for which the IKr block result was “block IKr predominantly or exclusively”.

The subject of the next test is IKs.
Experiment: not given
The note with it: cited from earlier work.
Turning to `CN1CCN(CCCCN2C(=O)CN(/N=C/c3ccc(-c4ccc(Cl)cc4)o3)C2=O)CC1` [azimilide], the “blocking action on the IKs” value was “blocking action on the IKs”.

Another test deals with K+ (ATP) channel.
Experiment: not given
The settings on record: known compounds; cited from earlier work.
As to `CC1(C)Oc2ccc(C#N)cc2[C@@H](N2CCCC2=O)[C@@H]1O` (relative stereo) [cromakalim], the “action on ATP-sensitive K+ channels” value is listed as “openers of ATP-sensitive K^+ channels”.

Source of the values: US6008245A, “Sulfonamide-substituted benzopyran derivatives, processes for their preparation, their use as a medicament, and pharmaceutical preparations comprising them” (priority 1997, dated 1999).
